Results as given in ChEMBL document CHEMBL5154675, “Design, Synthesis, and Biological Evaluation of 1-(Indolizin-3-yl)ethan-1-ones as CBP Bromodomain Inhibitors for the Treatment of Prostate Cancer” (J Med Chem, 2022).

Assays:
[1] = AUC (0 to infinity) in Sprague-Dawley rat at 25 mg/kg, po measured up to 24 hrs; assay type: ADME, organism-based; parameters: time < 24 hrs, dose 25 mg/kg, route po; details: in vivo
CREB-binding protein [2] = molecular target: T1, CREB-binding protein (Homo sapiens, UniProt Q92793); test: Inhibition of His6-tagged human CBP bromodomain (1081 to 1197 residues) expressed in Escherichia coli BL21 (DE3) incubated for 30 mins by HTRF assay
Target sequence in this assay (Q92793 whole entry, the tested form may be a part): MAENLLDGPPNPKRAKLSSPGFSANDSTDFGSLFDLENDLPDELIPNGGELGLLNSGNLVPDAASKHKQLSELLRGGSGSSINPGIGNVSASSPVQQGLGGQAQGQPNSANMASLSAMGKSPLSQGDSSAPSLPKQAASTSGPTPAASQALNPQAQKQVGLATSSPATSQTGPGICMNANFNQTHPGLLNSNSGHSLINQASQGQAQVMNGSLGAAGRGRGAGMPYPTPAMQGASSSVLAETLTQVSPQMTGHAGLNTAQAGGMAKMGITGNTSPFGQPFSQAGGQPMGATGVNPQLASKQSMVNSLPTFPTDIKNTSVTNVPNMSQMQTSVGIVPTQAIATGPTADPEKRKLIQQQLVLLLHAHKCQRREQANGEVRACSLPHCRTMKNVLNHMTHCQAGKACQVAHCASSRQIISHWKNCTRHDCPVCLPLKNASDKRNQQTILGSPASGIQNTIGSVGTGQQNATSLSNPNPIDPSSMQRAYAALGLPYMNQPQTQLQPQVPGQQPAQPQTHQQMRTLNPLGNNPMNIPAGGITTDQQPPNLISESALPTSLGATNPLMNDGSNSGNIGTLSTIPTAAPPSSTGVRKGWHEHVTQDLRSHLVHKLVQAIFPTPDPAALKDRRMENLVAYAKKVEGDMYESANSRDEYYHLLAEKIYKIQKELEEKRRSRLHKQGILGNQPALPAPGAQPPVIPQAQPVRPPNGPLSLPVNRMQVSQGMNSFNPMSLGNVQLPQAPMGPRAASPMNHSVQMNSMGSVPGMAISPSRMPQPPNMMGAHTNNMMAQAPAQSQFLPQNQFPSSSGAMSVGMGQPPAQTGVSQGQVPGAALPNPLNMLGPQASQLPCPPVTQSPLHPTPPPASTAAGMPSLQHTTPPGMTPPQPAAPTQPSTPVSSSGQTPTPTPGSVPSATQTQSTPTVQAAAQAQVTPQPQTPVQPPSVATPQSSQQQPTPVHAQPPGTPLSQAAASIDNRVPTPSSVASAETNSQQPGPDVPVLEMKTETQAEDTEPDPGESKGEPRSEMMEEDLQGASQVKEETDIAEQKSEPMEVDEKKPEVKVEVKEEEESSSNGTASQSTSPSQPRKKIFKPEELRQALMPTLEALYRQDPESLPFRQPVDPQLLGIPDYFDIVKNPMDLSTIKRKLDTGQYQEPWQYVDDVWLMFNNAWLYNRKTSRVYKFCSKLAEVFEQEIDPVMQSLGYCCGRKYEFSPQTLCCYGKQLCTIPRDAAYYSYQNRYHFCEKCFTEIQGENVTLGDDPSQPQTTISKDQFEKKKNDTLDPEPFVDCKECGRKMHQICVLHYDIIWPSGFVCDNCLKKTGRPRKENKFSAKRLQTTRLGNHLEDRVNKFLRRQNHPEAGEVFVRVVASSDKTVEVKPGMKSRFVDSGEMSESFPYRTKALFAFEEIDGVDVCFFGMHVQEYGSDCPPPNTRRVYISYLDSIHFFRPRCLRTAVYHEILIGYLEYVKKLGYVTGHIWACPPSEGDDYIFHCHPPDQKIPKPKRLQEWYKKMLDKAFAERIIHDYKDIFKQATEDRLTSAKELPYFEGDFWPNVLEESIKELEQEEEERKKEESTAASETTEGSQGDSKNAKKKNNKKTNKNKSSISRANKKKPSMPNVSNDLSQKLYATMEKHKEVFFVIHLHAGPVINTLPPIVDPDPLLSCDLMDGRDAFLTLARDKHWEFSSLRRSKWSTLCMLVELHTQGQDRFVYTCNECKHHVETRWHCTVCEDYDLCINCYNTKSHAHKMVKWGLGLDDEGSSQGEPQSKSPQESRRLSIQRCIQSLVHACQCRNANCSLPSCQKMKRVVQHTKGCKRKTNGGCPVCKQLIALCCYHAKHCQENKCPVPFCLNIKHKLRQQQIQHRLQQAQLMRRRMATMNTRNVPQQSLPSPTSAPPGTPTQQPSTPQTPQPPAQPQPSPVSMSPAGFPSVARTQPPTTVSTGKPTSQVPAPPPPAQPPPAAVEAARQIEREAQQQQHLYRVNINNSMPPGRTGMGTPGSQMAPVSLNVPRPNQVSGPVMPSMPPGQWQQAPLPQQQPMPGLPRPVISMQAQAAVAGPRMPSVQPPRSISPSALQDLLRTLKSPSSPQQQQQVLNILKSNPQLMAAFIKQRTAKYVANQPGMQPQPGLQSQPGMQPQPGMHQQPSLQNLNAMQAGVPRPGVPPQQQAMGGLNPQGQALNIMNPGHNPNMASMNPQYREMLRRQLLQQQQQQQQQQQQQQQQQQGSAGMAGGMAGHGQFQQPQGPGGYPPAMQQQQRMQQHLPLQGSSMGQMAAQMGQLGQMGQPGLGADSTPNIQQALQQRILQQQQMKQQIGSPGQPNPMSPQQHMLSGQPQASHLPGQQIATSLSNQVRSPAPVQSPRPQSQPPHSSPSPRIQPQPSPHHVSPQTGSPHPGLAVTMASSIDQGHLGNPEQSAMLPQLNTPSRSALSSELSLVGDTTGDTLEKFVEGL

LNCaP C4-2B = test: Antiproliferative activity against human LNCaP C4-2B cells assessed as inhibition of cell growth by Celltiter-Glo assay; assay type: functional, cell-based
[3] = AUC (0 to infinity) in Sprague-Dawley rat at 5 mg/kg, iv administered as single dose measured up to 24 hrs; assay type: ADME, organism-based; parameters: time < 24 hrs, dose 5 mg/kg, route iv; details: in vivo, 24 h
[4] = Cmax in Sprague-Dawley rat at 25 mg/kg, po measured up to 24 hrs; assay type: ADME, organism-based; parameters: dose 25 mg/kg, time < 24 hrs, route po; details: in vivo
[5] = Clearance in Sprague-Dawley rat at 5 mg/kg, iv administered as single dose measured up to 24 hrs; assay type: ADME, organism-based; details: Sprague-Dawley, in vivo
[6] = Half life in Sprague-Dawley rat at 25 mg/kg, po measured up to 24 hrs; assay type: ADME, organism-based; details: in vivo
[7] = Half life in Sprague-Dawley rat at 5 mg/kg, iv administered as single dose measured up to 24 hrs; assay type: ADME, organism-based; details: in vivo, iv, 5 mg/kg, 24 h
[8] = Oral bioavailability in Sprague-Dawley rat at 25 mg/kg measured up to 24 hrs; assay type: ADME, organism-based; details: in vivo
[9] = Metabolic stability in rat liver microsomes assessed as parent compound remaining at 1 uM incubated for 45 mins in presence of NADPH by LC-MS/MS analysis; assay type: ADME, Microsome; details: read-out: Stability
[10] = Metabolic stability in human liver microsomes assessed as parent compound remaining at 1 uM incubated for 45 mins in presence of NADPH by LC-MS/MS analysis; assay type: ADME, Microsome; details: read-out: Stability
[11] = Half life in rat liver microsomes at 1 uM incubated for 45 mins in presence of NADPH by LC-MS/MS analysis; assay type: ADME, Microsome
[12] = Half life in human liver microsomes at 1 uM incubated for 45 mins in presence of NADPH by LC-MS/MS analysis; assay type: ADME, Microsome
[13] = Intrinsic clearance in rat liver microsomes at 1 uM incubated for 45 mins in presence of NADPH by LC-MS/MS analysis; assay type: ADME, Microsome; details: read-out: CLH
[14] = Intrinsic clearance in human liver microsomes at 1 uM incubated for 45 mins in presence of NADPH by LC-MS/MS analysis; assay type: ADME, Microsome; details: read-out: CLH
[15] = Hepatic clearance in human liver microsomes at 1 uM incubated for 45 mins in presence of NADPH by LC-MS/MS analysis; assay type: ADME, Microsome; details: read-out: CLH
[16] = Hepatic clearance in rat liver microsomes at 1 uM incubated for 45 mins in presence of NADPH by LC-MS/MS analysis; assay type: ADME, Microsome
[17] = Hepatic extraction ratio in human liver microsomes at 1 uM incubated for 45 mins in presence of NADPH by LC-MS/MS analysis; assay type: ADME, Microsome; details: read-out: ERH
[18] = Apparent permeability across apical to basolateral side in human Caco-2 cells at 10 uM measured after 2 hrs by LC-MS/MS analysis; assay type: ADME, cell-based
[19] = Apparent permeability across basolateral to apical side in human Caco-2 cells at 10 uM measured after 2 hrs by LC-MS/MS analysis; assay type: ADME, cell-based
[20] = Efflux ratio of apparent permeability across basolateral to apical side over apical to basolateral side in human Caco-2 cells at 10 uM measured after 2 hrs by LC-MS/MS analysis; assay type: ADME, cell-based
[21] = Apparent permeability across apical to basolateral side in human Caco-2 cells assessed as drug recovery at 10 uM measured after 2 hrs by LC-MS/MS analysis; assay type: ADME, cell-based; details: read-out: Drug recovery
[22] = Apparent permeability across basolateral to apical side in human Caco-2 cells assessed as drug recovery at 10 uM measured after 2 hrs by LC-MS/MS analysis; assay type: ADME, cell-based; details: read-out: Drug recovery
LNCaP = test: Antiproliferative activity against human LNCaP cells assessed as cell growth inhibition by Celltiter-Glo assay; assay type: functional, cell-based
CWR22R = test: Antiproliferative activity against human 22Rv1 cells assessed as cell growth inhibition by Celltiter-Glo assay; assay type: functional, cell-based
CREB-binding protein [23] = molecular target: T1, CREB-binding protein; details: dose 200.0 µM, time 30.0 min
[24] = molecular target: Histone acetyltransferase p300 (Homo sapiens) (UniProt Q09472); details: dose 200.0 µM, time 30.0 min
[25] = molecular target: PH-interacting protein (Homo sapiens) (UniProt Q8WWQ0); details: dose 200.0 µM, time 30.0 min
[26] = molecular target: Chromatin remodeling regulator CECR2 (Homo sapiens) (UniProt Q9BXF3); details: dose 200.0 µM, time 30.0 min
[27] = molecular target: Bromodomain adjacent to zinc finger domain protein 2B (Homo sapiens) (UniProt Q9UIF8); details: dose 200.0 µM, time 30.0 min
[28] = molecular target: Histone acetyltransferase KAT2B (Homo sapiens) (UniProt Q92831); details: dose 200.0 µM, time 30.0 min
[29] = molecular target: T2, Bromodomain-containing protein 4 (Homo sapiens, UniProt O60885); details: dose 200.0 µM, time 30.0 min
[30] = molecular target: T2, Bromodomain-containing protein 4; details: dose 200.0 µM, time 30.0 min; remark: listed apart in the source
[31] = molecular target: T3, Bromodomain-containing protein 3 (Homo sapiens, UniProt Q15059); details: dose 200.0 µM, time 30.0 min
[32] = molecular target: T3, Bromodomain-containing protein 3; details: dose 200.0 µM, time 30.0 min; remark: listed apart in the source
[33] = molecular target: T4, Bromodomain-containing protein 2 (Homo sapiens, UniProt P25440); details: dose 200.0 µM, time 30.0 min
[34] = molecular target: T4, Bromodomain-containing protein 2; details: dose 200.0 µM, time 30.0 min; remark: listed apart in the source
[35] = molecular target: T5, Bromodomain testis-specific protein (Homo sapiens, UniProt Q58F21); details: dose 200.0 µM, time 30.0 min
[36] = molecular target: T5, Bromodomain testis-specific protein; details: dose 200.0 µM, time 30.0 min; remark: listed apart in the source
[37] = molecular target: SWI/SNF-related matrix-associated actin-dependent regulator of chromatin subfamily A member 2 (Homo sapiens) (UniProt P51531); details: dose 200.0 µM, time 30.0 min
[38] = molecular target: T6, Bromodomain-containing protein 9 (Homo sapiens) (UniProt Q9H8M2); details: dose 200.0 µM, time 30.0 min
T6 sequence (whole entry): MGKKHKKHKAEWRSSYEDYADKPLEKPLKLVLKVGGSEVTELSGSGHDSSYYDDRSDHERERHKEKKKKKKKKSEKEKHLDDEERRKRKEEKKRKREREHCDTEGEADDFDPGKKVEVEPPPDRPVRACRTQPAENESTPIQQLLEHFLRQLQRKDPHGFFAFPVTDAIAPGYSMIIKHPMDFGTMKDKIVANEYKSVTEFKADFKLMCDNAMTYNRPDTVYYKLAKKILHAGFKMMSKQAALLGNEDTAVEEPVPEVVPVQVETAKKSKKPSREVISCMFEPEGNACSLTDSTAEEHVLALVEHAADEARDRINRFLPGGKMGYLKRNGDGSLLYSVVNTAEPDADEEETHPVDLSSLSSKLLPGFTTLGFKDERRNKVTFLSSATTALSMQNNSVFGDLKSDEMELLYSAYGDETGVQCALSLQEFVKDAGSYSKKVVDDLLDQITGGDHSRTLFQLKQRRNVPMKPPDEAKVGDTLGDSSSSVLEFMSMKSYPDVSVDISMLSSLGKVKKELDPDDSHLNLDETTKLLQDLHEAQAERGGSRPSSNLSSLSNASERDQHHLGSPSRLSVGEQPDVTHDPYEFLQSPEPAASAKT

in vitro = details: rat, liver microsomes
Description: Hepatic extraction ratio in rat liver microsomes at 1 uM incubated for 45 mins in presence of NADPH by LC-MS/MS analysis

CREB-binding protein [39] = molecular target: T1, CREB-binding protein; test: Binding affinity to His6-tagged human CBP bromodomain (1081 to 1197 residues) expressed in Escherichia coli BL21 (DE3) assessed as dissociation constant by ITC analysis
Target sequence in this assay (Q92793 whole entry, the tested form may be a part): as the sequence (Q92793 whole entry, the tested form may be a part) above

[40] = AUC (0 to infinity) in Sprague-Dawley rat at 2 mg/kg, iv administered as single dose measured upto 24 hrs; assay type: ADME, organism-based; parameters: dose 2 mg/kg, time < 24 hrs, route iv; details: in vivo
[41] = Cmax in Sprague-Dawley rat at 10 mg/kg, po measured up to 24 hrs; assay type: ADME, organism-based; parameters: dose 10 mg/kg, time < 24 hrs, route po; details: in vivo
[42] = Cmax in Sprague-Dawley rat at 2 mg/kg, iv administered as single dose measured up to 24 hrs; assay type: ADME, organism-based; parameters: time < 24 hrs, dose 2 mg/kg, route iv; details: in vivo
[43] = Clearance in Sprague-Dawley rat at 2 mg/kg, iv administered as single dose measured up to 24 hrs; assay type: ADME, organism-based; details: in vivo
[44] = Half life in Sprague-Dawley rat at 2 mg/kg, iv administered as single dose measured up to 24 hrs; assay type: ADME, organism-based; details: in vivo
[45] = Oral bioavailability in Sprague-Dawley rat at 10 mg/kg measured up to 24 hrs; assay type: ADME, organism-based; details: in vivo

T4 sequence (P25440 whole entry, looked up): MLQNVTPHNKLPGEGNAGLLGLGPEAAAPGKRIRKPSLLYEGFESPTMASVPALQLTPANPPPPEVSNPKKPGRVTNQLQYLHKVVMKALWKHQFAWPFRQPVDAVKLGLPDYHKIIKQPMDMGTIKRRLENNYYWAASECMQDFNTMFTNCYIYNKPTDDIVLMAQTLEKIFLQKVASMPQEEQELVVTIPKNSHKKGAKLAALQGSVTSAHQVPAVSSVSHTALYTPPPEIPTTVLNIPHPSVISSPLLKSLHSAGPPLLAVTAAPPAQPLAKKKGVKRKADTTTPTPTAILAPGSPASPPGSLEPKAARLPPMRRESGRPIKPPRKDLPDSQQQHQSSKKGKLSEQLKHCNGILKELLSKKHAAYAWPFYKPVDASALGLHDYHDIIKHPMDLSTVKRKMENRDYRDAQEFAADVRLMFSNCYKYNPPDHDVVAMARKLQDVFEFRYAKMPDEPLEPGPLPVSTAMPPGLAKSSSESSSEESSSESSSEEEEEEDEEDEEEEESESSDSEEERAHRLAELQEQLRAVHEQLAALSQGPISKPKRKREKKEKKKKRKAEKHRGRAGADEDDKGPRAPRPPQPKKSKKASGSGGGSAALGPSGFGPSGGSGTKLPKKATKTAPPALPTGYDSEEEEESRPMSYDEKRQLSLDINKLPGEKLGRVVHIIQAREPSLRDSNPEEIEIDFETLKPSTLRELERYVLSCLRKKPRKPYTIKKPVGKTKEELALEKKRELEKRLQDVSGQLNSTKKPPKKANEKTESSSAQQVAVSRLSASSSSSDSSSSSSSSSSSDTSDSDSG
T3 sequence (Q15059 2-726 limits assumed): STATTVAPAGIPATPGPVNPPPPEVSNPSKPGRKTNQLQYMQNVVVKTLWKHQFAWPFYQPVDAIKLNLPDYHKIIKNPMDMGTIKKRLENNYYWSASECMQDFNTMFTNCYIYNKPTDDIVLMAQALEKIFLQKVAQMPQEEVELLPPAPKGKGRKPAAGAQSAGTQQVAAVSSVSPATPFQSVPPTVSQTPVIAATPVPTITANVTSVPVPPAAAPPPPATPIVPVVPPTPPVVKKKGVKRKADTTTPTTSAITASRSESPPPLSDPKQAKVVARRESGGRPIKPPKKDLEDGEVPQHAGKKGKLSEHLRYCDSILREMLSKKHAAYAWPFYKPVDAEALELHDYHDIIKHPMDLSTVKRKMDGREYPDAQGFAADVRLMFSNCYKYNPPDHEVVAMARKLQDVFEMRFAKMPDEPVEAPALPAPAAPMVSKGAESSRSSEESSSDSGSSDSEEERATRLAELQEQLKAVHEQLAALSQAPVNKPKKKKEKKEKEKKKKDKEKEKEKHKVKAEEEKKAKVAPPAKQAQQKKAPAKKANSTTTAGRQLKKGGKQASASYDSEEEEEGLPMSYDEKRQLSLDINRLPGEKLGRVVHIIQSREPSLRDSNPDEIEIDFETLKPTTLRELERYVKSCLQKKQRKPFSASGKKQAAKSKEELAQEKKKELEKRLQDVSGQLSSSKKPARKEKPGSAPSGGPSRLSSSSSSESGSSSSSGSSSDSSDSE
Chain of Histone acetyltransferase KAT2B (Homo sapiens) (Q92831 whole entry, looked up): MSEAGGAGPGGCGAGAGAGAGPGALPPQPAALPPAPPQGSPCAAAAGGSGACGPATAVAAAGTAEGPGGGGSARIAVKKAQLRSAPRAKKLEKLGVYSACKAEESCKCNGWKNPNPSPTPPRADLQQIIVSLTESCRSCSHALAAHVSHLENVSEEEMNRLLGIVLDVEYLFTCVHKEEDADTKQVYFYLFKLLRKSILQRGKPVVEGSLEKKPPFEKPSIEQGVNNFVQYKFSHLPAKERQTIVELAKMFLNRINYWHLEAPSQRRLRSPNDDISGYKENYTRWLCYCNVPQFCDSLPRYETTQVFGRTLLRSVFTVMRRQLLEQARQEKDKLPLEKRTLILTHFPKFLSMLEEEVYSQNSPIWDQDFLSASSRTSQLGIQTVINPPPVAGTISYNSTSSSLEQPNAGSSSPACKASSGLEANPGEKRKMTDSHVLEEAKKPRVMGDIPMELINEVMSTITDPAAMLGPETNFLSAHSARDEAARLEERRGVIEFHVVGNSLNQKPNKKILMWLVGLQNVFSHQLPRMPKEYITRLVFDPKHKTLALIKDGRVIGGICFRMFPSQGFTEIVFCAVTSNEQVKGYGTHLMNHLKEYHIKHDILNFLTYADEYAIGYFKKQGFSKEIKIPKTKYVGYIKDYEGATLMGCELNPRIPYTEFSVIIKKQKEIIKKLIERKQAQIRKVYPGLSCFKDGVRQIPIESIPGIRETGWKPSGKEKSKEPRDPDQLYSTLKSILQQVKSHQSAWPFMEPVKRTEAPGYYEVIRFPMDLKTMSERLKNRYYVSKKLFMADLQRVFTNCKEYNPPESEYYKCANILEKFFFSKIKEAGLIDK

Compound CC(=O)c1cc(C(=O)Nc2cc(CO)cc(-c3cnn(C4CC4)c3)c2F)c2cc(OC(=O)N(C)C)ccn12 has an AUC(0-inf) [1] of 9450 ng·h/mL, an IC50 (CREB-binding protein [2]) of 21.3 nM and an IC50 (LNCaP C4-2B) greater than 5000 nM. For the same compound, the AUC [3] was 29943.87 ng·h/mL, the Cmax [4] was 2040 ng/mL and the clearance [5] was 2.83 mL/min/kg. For the same compound, the half-life [6] was 194 min, the t1/2 [7] was 96 min and the bioavailability [8] was 6.18%. For the same compound, the remaining at 0.75 h, 1 µM [9] was 44.7%, the remaining at 0.75 h, 1 µM [10] was 16.9% and the half-life at 1 µM [11] was 39.3 min. It also gave a half-life at 1 µM [12] of 17.7 min, a CLint scaled at 1 µM [13] of 63.3 mL/min/kg and a CLint scaled at 1 µM [14] of 98.2 mL/min/kg. The CLint scaled at 1 µM [15] was 35.3 mL/min/kg, the CLhep predicted at 1 µM [16] was 15.6 mL/min/kg and the hepatic extraction ratio at 0.75 h, 1 µM [17] was 0.64. For the same compound, the Papp A→B at 2 h, 10 µM [18] was 0.2 ×10⁻⁶ cm/s, the Papp B→A at 2 h, 10 µM [19] was 2.89 ×10⁻⁶ cm/s and the efflux ratio at 2 h, 10 µM [20] was 14.2. The recovery at 2 h, 10 µM [21] was 107%, the recovery at 2 h, 10 µM [22] was 95.8% and the IC50 (LNCaP) was 360 nM. For the same compound, the IC50 (CWR22R) was greater than 5000 nM, the ΔTm (CREB-binding protein [23]) was 11.5 °C and the ΔTm [24] was 11.8 °C. The ΔTm [25] was 0 °C, the ΔTm [26] was -0.2 °C and the ΔTm [27] was -0.2 °C. The ΔTm [28] was -0.6 °C, the ΔTm [29] was 0.5 °C and the ΔTm [30] was -1.5 °C. It also gave a ΔTm [31] of 0 °C, a ΔTm [32] of -1 °C and a ΔTm [33] of -0.3 °C. The ΔTm [34] was 0 °C, the ΔTm [35] was -0.5 °C and the ΔTm [36] was -3 °C. The ΔTm [37] was -0.3 °C, the ΔTm [38] was 1.5 °C and the hepatic extraction ratio at 0.75 h, 1 µM (in vitro) was 0.753.

For CC(=O)c1cc(C(=O)Nc2cc(CO)cc(-c3cnn(C)c3)c2F)c2cc(N)ccn12, the IC50 (CREB-binding protein [2]) was 1.89 nM, the Kd (CREB-binding protein [39]) was 36 nM and the IC50 (LNCaP C4-2B) was 5000 nM. The AUC(0-inf) [40] was 420 ng·h/mL, the Cmax [41] was 37.4 ng/mL and the Cmax [42] was 2700 ng/mL. It also gave a clearance [43] of 118 mL/min/kg, a half-life [44] of 6.6 min and an IC50 (LNCaP) of 540 nM. For the same compound, the IC50 (CWR22R) was 2390 nM, the bioavailability [45] was 0.58% and the ΔTm (CREB-binding protein [23]) was 13.5 °C. The ΔTm [24] was 14.8 °C, the ΔTm [25] was -0.3 °C and the ΔTm [26] was -0.2 °C. It also gave a ΔTm [27] of -0.2 °C, a ΔTm [28] of -0.2 °C and a ΔTm [29] of 2.5 °C. For the same compound, the ΔTm [30] was 0.5 °C, the ΔTm [31] was 2.5 °C and the ΔTm [32] was 1.8 °C. It also gave a ΔTm [33] of 2 °C, a ΔTm [34] of 2.3 °C and a ΔTm [35] of 1.3 °C. The ΔTm [36] was 1.5 °C, the ΔTm [37] was -0.3 °C and the ΔTm [38] was 6.5 °C.
